Results from PMC11995724, “Antibiotic target discovery by integrated phenotypic and activity-based profiling of electrophilic fragments” (Cell chemical biology, 2025).
In brackets after ≈: the same amount, converted by molar mass.

How the values were obtained:
[1] = target: T1, Sf_FabH (Shigella flexneri, UniProt Q83RS8); assay: in-gel fluorescence, competition with 5-TMRIA labelling; assay type: binding; conditions: covalent; 1.5 uM protein in PBS, 1 h, 22 °C
T1 construct: gene fabH; recombinant, N-terminal His-tag, pET28a(+), E. coli BL21(DE3), Ni-NTA and Superdex 75
T1 sequence (Q83RS8 1-317): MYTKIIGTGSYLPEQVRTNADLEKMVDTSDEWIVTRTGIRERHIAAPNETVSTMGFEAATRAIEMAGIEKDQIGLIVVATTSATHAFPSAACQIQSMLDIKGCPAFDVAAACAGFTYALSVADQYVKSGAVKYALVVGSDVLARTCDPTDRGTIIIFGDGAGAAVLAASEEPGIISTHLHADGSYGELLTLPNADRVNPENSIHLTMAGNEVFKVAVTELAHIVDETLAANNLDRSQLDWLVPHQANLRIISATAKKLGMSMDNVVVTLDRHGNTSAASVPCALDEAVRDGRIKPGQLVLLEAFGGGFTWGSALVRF

[2] = in vitro; conditions: human, hek293t cells
[3] = test system: T2, Staphylococcus aureus SAD30; assay: microbe, parasite or virus in culture; set-up: species or system bacteria in LB, TSB or NB; broth microdilution MIC, OD600, lowest concentration with no growth
T2 construct: SAD30
Protocol: The minimum inhibitory concentrations (MICs) of compounds were measured using the broth microdilution method.[10] One stab using 10 µL tip from bacteria glycerol stock was inoculated into 5 mL of LB supplemented with selection antibiotics (Kanamycin for Keio collections and chloramphenicol for ASKA collections), and the culture was incubated at 37°C with shaking overnight. The overnight culture was diluted 1:10000 (~5 × 10^5 CFU/mL) and then dispensed in to a 96-well plate containing serial dilutions of indicated compounds in DMSO. The plate was incubated at 37°C for 16–20 h with shaking at 80 rpm and the OD600 was measured using Cytation 5 plate reader (BioTek). MIC was determined as the lowest concentration for which no bacterial growth was observed. LB was used as the growth media for all the bacteria strains unless otherwise mentioned. For S. aureus and A. baumannii strains, tryptic soy broth (TSB, BD, DF0370-17-3) was used as the growth media instead of LB. For P. aeruginosa and K. pneumoniae strains, nutrient broth (NB, RPI, N15100) was used as growth media. All MIC measurements were performed in at least biological duplicates.

[4] = target: T3, Sf_PdxY (Shigella flexneri, UniProt Q83KY1); assay: in-gel fluorescence, competition with 5-TMRIA labelling; assay type: binding; conditions: covalent; 1.5 uM protein in PBS, 1 h, 22 °C
T3 construct: gene pdxY; recombinant, N-terminal His-tag, pET28a(+), E. coli BL21(DE3), Ni-NTA and Superdex 75
T3 sequence (Q83KY1 1-287): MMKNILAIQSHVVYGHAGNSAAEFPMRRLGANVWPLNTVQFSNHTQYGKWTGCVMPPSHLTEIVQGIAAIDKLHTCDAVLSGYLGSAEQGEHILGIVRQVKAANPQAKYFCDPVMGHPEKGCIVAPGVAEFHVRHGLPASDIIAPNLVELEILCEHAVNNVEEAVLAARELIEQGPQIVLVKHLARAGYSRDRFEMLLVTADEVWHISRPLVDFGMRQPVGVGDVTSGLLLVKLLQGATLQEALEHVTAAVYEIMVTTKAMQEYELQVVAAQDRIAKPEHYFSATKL

[5] = target: T4, S. aureus FabH (Staphylococcus aureus, UniProt Q6GAU3); assay: in vitro targeting of purified protein (method not given); assay type: binding
T4 construct: recombinant, N-terminal His-tag, pET28a(+), E. coli BL21(DE3)
T4 sequence (Q6GAU3 1-313): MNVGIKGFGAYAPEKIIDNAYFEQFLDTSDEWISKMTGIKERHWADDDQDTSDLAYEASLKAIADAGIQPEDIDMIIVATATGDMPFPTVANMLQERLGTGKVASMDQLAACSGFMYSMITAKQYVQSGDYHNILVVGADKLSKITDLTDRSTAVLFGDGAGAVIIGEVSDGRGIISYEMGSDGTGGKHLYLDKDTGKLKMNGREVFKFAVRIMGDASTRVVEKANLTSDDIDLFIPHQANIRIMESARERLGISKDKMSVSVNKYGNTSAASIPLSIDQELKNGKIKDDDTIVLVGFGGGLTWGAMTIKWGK
Text: in vitro targeting of purified protein (method not told in the main text) on S. aureus FabH | The S. aureus FabH […] can also be targeted by 10-F05 in vitro

O=C(CCl)c1cn(-c2ccc(F)cc2)nn1 [10-F05]
in-gel fluorescence, competition with 5-TMRIA labelling [1]: preincubation with 10-F05 resulted in a dose-dependent decrease in 5-TMRIA labeling of these proteins
viability at 48 h, 25 µM [2]: 89.9%
MIC [3]: 10 µM (≈ 2.4 µg/mL)
in-gel fluorescence, competition with 5-TMRIA labelling [4]: preincubation with 10-F05 resulted in a dose-dependent decrease in 5-TMRIA labeling of these proteins
in vitro targeting of purified protein (method not given) [5]: The S. aureus FabH [...] can also be targeted by 10-F05 in vitro
